# Reference: patent US10414713B2, “Fatty acid compound, preparation method therefor and use therefor” (SHANGHAI INSTITUTE OF MATERIA MEDICA, CHINESE ACADEMY OF …, priority 2016, dated 2019)
# System: primary hepatocytes of C57bl/6j mice
# Assay: Glucose output in primary hepatocytes of C57bl/6j mice
# Format: cell-based
# Details: Hepatocyte, 6 hours, mouse primary hepatocytes, corrected by protein concentration, FIG. 3, read-out: gluconeogenesis inhibition (glucose output) relative to the negative control
# Procedure: 2. To Investigate the Effect of Compounds on Glucose Output in Primary Hepatocytes of C57bl/6j Mice.
# (1) Test purpose: To test whether the fatty acid compounds can inhibit hepatocyte glucose output on primary hepatocytes of C57bl/6j mice.
# (2) Experimental principle: Small molecule compounds act on mouse primary hepatocytes, inhibit gluconeogenesis, and then affect the glucose output of cells into the medium. The effect of compounds on gluconeogenesis is evaluated by detecting the glucose concentration in the medium after the treatment of different compounds.
# (3) Detection reagent: The glucose detection kit was purchased from Shanghai Mind Bioengineering Co., Ltd.
# 1) the primary hepatocytes of C57bl/6j mice were isolated and inoculated into a 24-well plate at a density of 300,000 per mL. After grew adhering to the wall for 6 hours, they were replaced on serumfree highsugar medium for 12 hours. Compounds 1 to 30 prepared by the present invention (in 1‰ DMSO, 50 μM) were separately added to treat for 6 hours (1‰ DMSO as a negative control). The medium was gently mixed, 50 μL of supernatant was taken from every well, and glucose concentration was measured by a glucose oxidase assay kit.
# 2) The medium was discarded. The cells was washed with PBS, spin dried, added 200 μL of 250 mM sodium hydroxide solution. […] The protein concentration was determined using coomassie blue staining. […]
smiles,measurement,value
CCC(C)(CCCCCCC=CCCCCCCCC(C)(CC)C(=O)O)C(=O)O (stereo not shown) [Compound 20],inhibition at 50 µM,> 50%
